Results reported in the supplement of paper PMC10307832.

Columns and labels:
Experiment in all cases: relative viability (nuclei count vs DMSO), 5 days (fraction); higher = more cells survive
Sorafenib + Dasatinib = compound: CNC(=O)c1cc(Oc2ccc(NC(=O)Nc3ccc(Cl)c(C(F)(F)F)c3)cc2)ccn1 [Sorafenib] + Cc1nc(Nc2ncc(C(=O)Nc3c(C)cccc3Cl)s2)cc(N2CCN(CCO)CC2)n1 [Dasatinib] (partner 0.075 µM)
How it was run: (§1)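 Nuclei were stained with Hoechst during a one-step fixation (final 0.05% Triton X-100, 1% formaldehyde, 1 ug/ml Hoechst) carried out 5 days after dosing, then counted on 4× images. The cells, lung cancer lines in 1536-well plates, had been dosed by pin tool the day after seeding with one drug alone or a fixed anchor-drug dose plus five library-drug doses (not always all listed) in √10 steps. Relative viability is the nuclei count in treated wells divided by that in vehicle wells, and each value is the median of duplicate plates.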

Sorafenib + Vorinostat = compound: CNC(=O)c1cc(Oc2ccc(NC(=O)Nc3ccc(Cl)c(C(F)(F)F)c3)cc2)ccn1 [Sorafenib] + O=C(CCCCCCC(=O)Nc1ccccc1)NO [Vorinostat] (partner 1 µM)
How it was run: as §1

Sorafenib + Foretinib = compound: CNC(=O)c1cc(Oc2ccc(NC(=O)Nc3ccc(Cl)c(C(F)(F)F)c3)cc2)ccn1 [Sorafenib] + COc1cc2c(Oc3ccc(NC(=O)C4(C(=O)Nc5ccc(F)cc5)CC4)cc3F)ccnc2cc1OCCCN1CCOCC1 [Foretinib] (partner 0.25 µM)
How it was run: as §1

Sorafenib + Trametinib = compound: CNC(=O)c1cc(Oc2ccc(NC(=O)Nc3ccc(Cl)c(C(F)(F)F)c3)cc2)ccn1 [Sorafenib] + CC(=O)Nc1cccc(-n2c(=O)n(C3CC3)c(=O)c3c(Nc4ccc(I)cc4F)n(C)c(=O)c(C)c32)c1 [Trametinib] (partner 0.02 µM)
How it was run: as §1

Sorafenib + Lapatinib = compound: CNC(=O)c1cc(Oc2ccc(NC(=O)Nc3ccc(Cl)c(C(F)(F)F)c3)cc2)ccn1 [Sorafenib] + CS(=O)(=O)CCNCc1ccc(-c2ccc3ncnc(Nc4ccc(OCc5cccc(F)c5)c(Cl)c4)c3c2)o1 [Lapatinib] (partner 2 µM)
How it was run: as §1

Cell Line	relative viability (Sorafenib + Dasatinib; first compound 0.08 µM)	relative viability (Sorafenib + Dasatinib; first compound 0.253 µM)	relative viability (Sorafenib + Dasatinib; first compound 2.53 µM)	relative viability (Sorafenib + Dasatinib; first compound 8 µM)	relative viability (Sorafenib + Vorinostat; first compound 0.08 µM)	relative viability (Sorafenib + Vorinostat; first compound 0.253 µM)	relative viability (Sorafenib + Vorinostat; first compound 2.53 µM)	relative viability (Sorafenib + Vorinostat; first compound 8 µM)	relative viability (Sorafenib + Foretinib; first compound 0.08 µM)	relative viability (Sorafenib + Foretinib; first compound 0.253 µM)	relative viability (Sorafenib + Foretinib; first compound 2.53 µM)	relative viability (Sorafenib + Foretinib; first compound 8 µM)	relative viability (Sorafenib + Trametinib; first compound 0.08 µM)	relative viability (Sorafenib + Trametinib; first compound 0.253 µM)	relative viability (Sorafenib + Trametinib; first compound 2.53 µM)	relative viability (Sorafenib + Trametinib; first compound 8 µM)	relative viability (Sorafenib + Lapatinib; first compound 0.08 µM)	relative viability (Sorafenib + Lapatinib; first compound 0.253 µM)	relative viability (Sorafenib + Lapatinib; first compound 2.53 µM)	relative viability (Sorafenib + Lapatinib; first compound 8 µM)
NCI-H2228	0.543	0.434	0.465	0.271	0.672	0.598	0.265	0.315	0.993	0.714	0.819	0.543	0.802	0.377	0.356	0.266	1.23	0.936	0.985	0.627
NCI-H2347	0.74	0.351	0.351	0.308	0.694	0.543	0.524	0.52	1.41	0.673	0.953	0.775	0.3	0.308	0.266	0.314	0.945	0.83	0.965	0.968
NCI-H2405	0.217	0.183	0.2	0.214	1.09	0.801	1.09	0.706	1.14	1.04	1.07	0.92	0.784	0.461	0.413	0.324	1.26	0.967	1.09	0.784
NCI-H3122	0.92	0.422	0.715	0.311	1.03	0.932	–	0.846	0.985	0.993	1.01	0.618	0.234	0.208	0.176	0.129	1.05	0.987	1.02	1.01
PC-3 [JPC-3]	1.03	0.936	–	–	0.886	0.555	1.1	0.883	1.07	1.05	0.985	0.882	–	0.712	0.773	0.718	0.499	0.439	0.502	0.537
PC-14	0.302	0.256	0.276	0.185	0.833	0.721	0.641	0.481	1.02	0.945	1.11	0.913	0.883	0.694	0.567	0.158	0.434	0.303	0.401	0.534
